We go through 13 compounds from patent US12600725B2 (Memorial Sloan-Kettering Cancer Center, priority 2013, dated 2026).

SMILES strings stand for the structures. Where “and” joins values, the source holds several entries; their conditions need not be identical. Equal values may be shown once. Entries after “also recorded” stand apart in the source; their conditions may differ. Read-outs that look alike come from different tables or passages of the source.

The test system of experiment [1] is Grp94. The note with it: Hsp90 vs Grp94.
In experiment [2] the target is T1, Trap-1 (Homo sapiens, UniProt Q12931).
T1 sequence (Q12931 60-704): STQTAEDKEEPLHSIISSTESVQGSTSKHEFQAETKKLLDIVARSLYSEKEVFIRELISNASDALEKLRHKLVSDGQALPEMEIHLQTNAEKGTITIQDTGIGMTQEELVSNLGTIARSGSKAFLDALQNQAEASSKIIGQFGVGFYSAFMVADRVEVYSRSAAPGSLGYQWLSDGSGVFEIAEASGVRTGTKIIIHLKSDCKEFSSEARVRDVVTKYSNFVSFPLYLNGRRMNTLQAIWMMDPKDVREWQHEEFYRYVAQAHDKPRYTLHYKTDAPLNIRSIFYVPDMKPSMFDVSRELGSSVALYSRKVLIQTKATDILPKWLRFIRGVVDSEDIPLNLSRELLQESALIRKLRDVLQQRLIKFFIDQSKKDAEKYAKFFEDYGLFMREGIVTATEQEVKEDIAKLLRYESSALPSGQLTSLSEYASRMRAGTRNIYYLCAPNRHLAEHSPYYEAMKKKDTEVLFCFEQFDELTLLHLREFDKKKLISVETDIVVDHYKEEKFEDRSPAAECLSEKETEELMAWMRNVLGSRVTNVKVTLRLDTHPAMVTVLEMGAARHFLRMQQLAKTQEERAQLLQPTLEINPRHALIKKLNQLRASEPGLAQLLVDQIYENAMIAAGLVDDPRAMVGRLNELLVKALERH
The settings on record: for decrease in binding efficacy for Trap-1: relative to Hsp90; for loss of affinity for Trap-1: Hsp90 vs Trap-1.

Experiment [3] deals with T2, Grp94 (Canis lupus familiaris, UniProt P41148). The note with it: read-out: Grp94 IC50; 43a as FP probe.
T2 sequence (P41148 with tags, fused parts or gaps DELINS287-327GGGG): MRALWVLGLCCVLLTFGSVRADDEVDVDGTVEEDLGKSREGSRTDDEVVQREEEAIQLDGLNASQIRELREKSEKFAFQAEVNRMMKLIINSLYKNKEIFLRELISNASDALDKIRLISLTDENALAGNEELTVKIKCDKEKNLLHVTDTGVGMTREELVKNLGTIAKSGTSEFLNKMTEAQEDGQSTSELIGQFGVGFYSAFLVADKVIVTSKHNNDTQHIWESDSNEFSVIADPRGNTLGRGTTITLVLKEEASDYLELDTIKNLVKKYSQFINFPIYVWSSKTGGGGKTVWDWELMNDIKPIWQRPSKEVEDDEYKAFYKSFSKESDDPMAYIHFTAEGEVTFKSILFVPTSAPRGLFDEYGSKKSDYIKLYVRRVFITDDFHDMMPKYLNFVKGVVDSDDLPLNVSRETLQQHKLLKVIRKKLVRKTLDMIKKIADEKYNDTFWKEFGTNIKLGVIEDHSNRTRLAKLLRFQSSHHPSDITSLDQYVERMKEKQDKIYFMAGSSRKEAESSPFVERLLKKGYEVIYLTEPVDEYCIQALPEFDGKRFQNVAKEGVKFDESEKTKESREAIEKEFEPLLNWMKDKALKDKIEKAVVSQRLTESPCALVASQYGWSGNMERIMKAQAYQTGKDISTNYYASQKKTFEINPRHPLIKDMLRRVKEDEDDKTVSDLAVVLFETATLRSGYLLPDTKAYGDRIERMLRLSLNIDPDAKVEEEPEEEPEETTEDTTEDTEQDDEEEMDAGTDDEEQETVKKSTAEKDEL
For experiment [4], the target named is Hsp90β (Homo sapiens, UniProt P08238).
Sequence of Hsp90β (P08238 whole entry): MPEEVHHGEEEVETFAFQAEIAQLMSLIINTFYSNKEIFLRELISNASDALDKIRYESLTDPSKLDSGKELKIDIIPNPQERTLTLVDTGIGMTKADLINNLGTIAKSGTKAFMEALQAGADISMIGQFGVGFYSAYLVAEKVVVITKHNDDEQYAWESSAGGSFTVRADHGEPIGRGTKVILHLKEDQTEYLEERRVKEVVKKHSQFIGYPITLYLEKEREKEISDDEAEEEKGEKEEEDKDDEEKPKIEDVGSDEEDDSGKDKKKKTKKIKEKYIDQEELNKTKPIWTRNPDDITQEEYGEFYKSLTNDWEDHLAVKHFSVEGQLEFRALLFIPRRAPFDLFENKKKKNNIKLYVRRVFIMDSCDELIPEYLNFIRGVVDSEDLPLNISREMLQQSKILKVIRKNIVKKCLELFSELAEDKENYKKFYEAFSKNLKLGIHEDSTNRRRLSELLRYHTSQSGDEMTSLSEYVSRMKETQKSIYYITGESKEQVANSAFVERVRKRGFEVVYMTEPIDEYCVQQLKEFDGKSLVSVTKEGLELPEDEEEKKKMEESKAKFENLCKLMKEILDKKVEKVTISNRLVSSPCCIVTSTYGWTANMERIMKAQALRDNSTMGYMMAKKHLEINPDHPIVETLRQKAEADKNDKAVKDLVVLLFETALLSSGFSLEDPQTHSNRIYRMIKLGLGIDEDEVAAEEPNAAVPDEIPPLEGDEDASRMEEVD
For experiment [5], the target named is T1, Trap-1. The note with it: read-out: TRAP-1.
The target in experiment [6] is T3, Hsp90α (Homo sapiens, UniProt P07900). As to the kind of experiment: biochemical. The note with it: FP competition, 6 nM Cy3B-GM, 10 nM protein, 4° C. for 24 h.
Experiment [7] addresses T2, Grp94. The note with it: read-out: Grp94; FP competition, 6 nM Cy3B-GM, 10 nM protein, 4° C. for 24 h.
The target in experiment [8] is T3, Hsp90α. The settings on record: read-out: Hsp90α; FP competition, 6 nM Cy3B-GM, 10 nM protein, 4° C. for 24 h.
Experiment [9] relates to Hsp70 induction and AKT degradation (cytosolic Hsp90 hallmarks) in C2C12 cells. As to the kind of experiment: Western blot of Hsp70 induction and AKT degradation in C2C12 cells. It is filed as cell-based, mouse. The note with it: 24 hrs. On the technique in general: A western blot detects proteins with antibodies after separation by electrophoresis.
Description: Cell fractionation and immunoblotting. Cells were either treated with DMSO (vehicle) or indicated compounds for 24 hr and lysed in RIPA buffer (50 mM Tris-HCl, pH 7.4, 150 mM NaCl, 0.5% sodium deoxycholate and 0.5% NP40) supplemented with cocktail protease inhibitors (Roche) to produce whole cell lysates. Lysates for cytosol and membrane fractions were harvested using ProteoExtract Subcellular Proteome Extraction Kit (Calbiochem) following the manufacturer's instructions. Protein concentrations were determined using BCA kit (Pierce) according to the manufacturer's instructions. […] After washing off the excess antibodies, the membranes were incubated with the corresponding horseradish peroxidase (HRP) conjugated secondary antibody. Blots were visualized by autoradiography using the Enhanced Chemiluminescence Detection System (GE Healthcare) according to manufacturer's instructions. For all gels 3-actin was used as a protein loading control.
Experiment [10] deals with Toll-like receptor 9 (TLR9) trafficking in HEK293 cells transfected with HA-TLR9. Briefly: TLR9-trafficking assay. It is filed as cell-based, human. The note with it: 24 h treatment. Here is the method: TLR^9-trafficking assay (Yang, Y. et al. Heat shock protein gp96 is a master chaperone for toll-like receptors and is important in the innate function of macrophages. Immunity 26, 215-26 (2007)). HEK 293T cells were transfected with pUNO-hTLR9-HA (Invivogen) using X-tremgene HP (Roche) according to the manufacturer's instructions. At 24 hrs post-transfection, cells were split onto cell culture chamber slides (Lab-Tek). Cells were then treated for 24 hrs with indicated compound at varying concentrations. After treatment, cells were fixed for 20 min in 4% paraformaldehyde in PBS, permeabilized with 0.1% Triton-X 100 in PBS for 10 min, blocked with 3% BSA in PBS for 30 min, followed by staining for 1 hr with an anti-HA antibody (Abcam, ab9110) or a normal rabbit IgG. Cells were washed with PBS, stained with an anti-rabbit-Cy3 antibody (Invitrogen) and finally mounted in the dark at 4° C. with Prolong Gold Antifade reagent (with DAPI). Cells were visualized under a confocal microscope (Leica Upright Confocal SP5). Fluorescence intensity was quantified using MetaMorph Microscopy Automation and Image Analysis Software (Molecular Devices Inc.) and normalized to the cell number.

The subject of experiment [11] is PANC-1 cells. As to the kind of experiment: Apoptosis assessment (Annexin V / 7AAD). It is filed as cell-based. The text has this:
Annexin V Apoptosis with 7-AAD has been specifically designed for the identification of apoptotic and necrotic cells. Annexin V (or Annexin A5) is a member of the annexin family of intracellular proteins that binds to phosphatidylserine (PS) in a calcium-dependent manner. PS is normally only found on the intracellular leaflet of the plasma membrane in healthy cells, but during early apoptosis, membrane asymmetry is lost and PS translocates to the external leaflet. Fluorochrome-labeled Annexin V can then be used to specifically target and identify apoptotic cells. Annexin V binding alone cannot differentiate between apoptotic and necrotic cells. To help distinguish between the necrotic and apoptotic cells 7-amino-actinomycin D (7-AAD) is used. Early apoptotic cells will exclude 7-AAD, while late stage apoptotic cells will stain positively, due to the passage of these dyes into the nucleus where they bind to DNA. 7-AAD (7-amino-actinomycin D) has a high DNA binding constant and is efficiently excluded by intact cells. It is useful for DNA analysis and dead cell discrimination during flow cytometric analysis. When excited by 488 laser light, 7-AAD fluorescence is detected in the far red range of the spectrum (650 nm long-pass filter).
Cell cycle and apoptosis assessment. Cell cycle and apoptosis were assessed by flow cytometry after single staining with propidium iodide (PI, BD Pharmingen) or double staining with AnnexinV-FITC (BD Pharmingen) and 7AAD (BD Pharmingen), respectively. Specifically, for cell cycle analysis, cells were washed twice with cold PBS and fixed in 70% ethanol overnight at 4° C. Fixed cells were collected at 1800 rpm for 10 min and stained with PBS containing PI and DNase-free RNase A (Sigma-Aldrich) for 1 h at room temperature in the dark. DNA content was measured by BD LSRII flow cytometer and cell further analyzed using program of cell cycle analysis in FloJo (Ashland, OR). The chicken erythrocyte nuclei singlets (CEN, Biosure) were used as the reference. For apoptosis assessment, live cells were collected, washed twice with cold PBS, resuspended in Binding Buffer and stained with AnnexinV-FITC and 7AAD for 15 min at room temperature in the dark. Signals from FL1 and FL3 channels were collected by MACSQuant analyzer and further analyzed using FloJo. Early apoptosis was defined as AnnexinV+/7AAD−, and late apoptosis was observed as AnnexinV+/7AAD+.

The subject of experiment [12] is Hsp70 induction in HEK293 cells. As to the kind of experiment: Hsp70 induction in HA-TLR9 transfected HEK293 cells. It is filed as cell-based, human. The settings on record: 24 h. Here is the method:
Cell fractionation and immunoblotting. Cells were either treated with DMSO (vehicle) or indicated compounds for 24 hr and lysed in RIPA buffer (50 mM Tris-HCl, pH 7.4, 150 mM NaCl, 0.5% sodium deoxycholate and 0.5% NP40) supplemented with cocktail protease inhibitors (Roche) to produce whole cell lysates. Lysates for cytosol and membrane fractions were harvested using ProteoExtract Subcellular Proteome Extraction Kit (Calbiochem) following the manufacturer's instructions. Protein concentrations were determined using BCA kit (Pierce) according to the manufacturer's instructions. The protein lysates ([…]) were electrophoretically resolved by SDS-PAGE, transferred onto nitrocellulose membranes and probed with the indicated primary antibodies against: HER^2 (Zymed, 28004), Hsp70 (Stressgen, SPA-810), Grp94 (Stressgen, SPA-850), Hsp90α (Abcam, Ab2928), Hsp90β (StressMarq, SMC-107B), Grp78 (Cell Signaling, 3183), Raf-1 (Santa Cruz, sc-133), phospho-Raf-1 (Cell Signaling, 9421), MEK1/2 (Cell Signaling, 8727), phospho-MEK1/2 (Cell Signaling, 9154), ERK1/2 (Cell Signaling, 4695), phospho-ERK1/2 (Cell Signaling, 4370), AKT (Cell Signaling, 9272), GM130 (Cell Signaling, 2296), Flotillin 2 (Cell Signaling, 3436), Histone H4 (Cell Signaling, 2592), Histone H1 (Santa Cruz, sc-8030), Caspase 3 (Cell Signaling, 9665), cleaved PARP (Promega, G7341), a-tubulin (Sigma, T5168) and 3-actin (Sigma, A1978). After washing off the excess antibodies, the membranes were incubated with the corresponding horseradish peroxidase (HRP) conjugated secondary antibody. Blots were visualized by autoradiography using the Enhanced Chemiluminescence Detection System (GE Healthcare) according to manufacturer's instructions. […]
TLR^9-trafficking assay (Yang, Y. et al. Heat shock protein gp96 is a master chaperone for toll-like receptors and is important in the innate function of macrophages. Immunity 26, 215-26 (2007)). […] Fluorescence intensity was quantified using MetaMorph Microscopy Automation and Image Analysis Software (Molecular Devices Inc.) and normalized to the cell number.

Experiment [13] relates to HER2 at the plasma membrane of SKBr3 cells. Briefly: Immunofluorescence of HER2 architecture at the plasma membrane. It is filed as cell-based. The method, then: We next investigated the biological significance of the unique association of HER^2 with Grp94 at the plasma membrane of SKBr3 cells. Because the Grp94 inhibitors described here target the ATP-binding pocket of Grp94, they affect Grp94 chaperone activity. Therefore we hypothesized that Grp94 may act on HER^2 at the plasma membrane to stabilize the protein and to regulate its function.
Immunofluorescence. Cells were seeded and grown onto culture slides (BD Falcon) for 24 hrs. After washing with cold PBS, cells were fixed by treating at 4° C. for 20 min with 4% paraformaldehyde in PBS, permeabilized with 0.1% Triton X-100 in PBS containing 10% FBS for 10 min, and blocked with 2% BSA for 1 hr. After washing for four times with PBS, primary antibodies were added onto the chambers and cell were incubated overnight at 4° C., washed again with PBS followed by incubation with the secondary antibody for 1 hr at room temperature. Cell were washed and then mounted and observed under microscope (Leica Upright Confocal SP5). The primary antibodies used in the assay are against: HER^2 (Zymed, 28004), Grp94 (Stressgen, SPA-850), Hsp70 (Stressgen, SPA-810), LAMP1-FITC (Abcam, ab25406), EEA1 (Abcam, ab70521), 58K Golgi-FITC (Abcam, ab27043) and Calnexin (BD, 610523).

Turning to `COc1c(C)cnc(Cn2cnc3c(Cl)nc(N)nc32)c1C` [BIIB021], in experiment [1], the “loss of affinity for Grp94” value is “approximately 10 fold”. For the same compound, the “decrease in binding efficacy for Trap-1” value in [2] amounted to 5 fold.
On to `CN(C)c1cc2c(cc1Sc1nc3c(N)nccc3n1CCNCC(C)(C)C)OCO2` [CUDC-305/Debio092], for which the “loss of affinity for Grp94” value in experiment [1] was “approximately 10 fold”. Also, the “loss of affinity for Trap-1” value in [2] is on record as approximately 2 log.
Take `C=CCNC1=C2C[C@@H](C)C[C@H](OC)[C@H](O)[C@@H](C)/C=C(\C)[C@H](OC(N)=O)[C@@H](OC)/C=C\C=C(/C)C(=O)NC(=CC1=O)C2=O` [Compound 17-AAG]: the IC50 amounted to 0.031 µM in experiment [3]; 1.5 µM in experiment [2] (read-out: Trap-1 IC50, 43a as FP probe); 1.5 µM in [2] (read-out: binding affinity (FP competition), probe 115a). For the same compound, in experiment [2], the “loss of affinity for Trap-1” value was approximately 2 log.
Turning to `C#CCCCn1c(Sc2cc(C)cc(C)c2)nc2c(N)ncnc21` [PU-H4], the IC50 in experiment [4] is more than 300 µM; in experiment [5], 158 ± 9.7 µM; in experiment [6] it was more than 300 µM; in [7] it was 11.5 ± 0.92 µM.
For `C#CCCCn1c(Sc2cc(C)ccc2C)nc2c(N)ncnc21` [PU-H27], the IC50 in experiment [4] was more than 300 µM; in experiment [5] it was 204 ± 11 µM; in experiment [6], more than 300 µM.
With `C#CCCCn1c(Sc2cc(Cl)ccc2Cl)nc2c(N)ncnc21` [PU-H42], the IC50 is more than 100 µM in experiment [4], 5.1 ± 4.2 µM in [5], 0.53 ± 0.1 µM in experiment [7] and 60.4 ± 1.6 µM in experiment [8].
Consider `C#CCCCn1c(Sc2cc(Cl)c(Cl)cc2Cl)nc2c(N)ncnc21` [PU-H51], for which the IC50 in experiment [4] was more than 200 µM; in experiment [5] it was 78.4 ± 8.9 µM; in experiment [6], more than 200 µM; in experiment [7], 0.17 ± 0.11 µM.
In the case of `CC(C)NCCCn1c(Sc2cc3c(cc2I)OCO3)nc2c(N)ncnc21` [PU-H71], in experiment [9], the AKT degradation result is “degrade AKT” and the Hsp70 induction result was “induce Hsp70”. Also, in experiment [10], the TLR9 trafficking entry is “inhibit TLR^9 trafficking”. For the same compound, the induction of apoptosis result in experiment [11] is on record as “very little effect”. Also, the Hsp70 induction entry in [12] was “induce Hsp70”. Also, the “decrease in binding efficacy for Trap-1” value in [2] is reported as 5 fold.
For the compound `CC1(C)CC(=O)c2c(C(F)(F)F)nn(-c3ccc(C(N)=O)c(N[C@H]4CC[C@H](O)CC4)c3)c2C1` [SNX-2112], the “loss of affinity for Grp94” value in [1] is given as “approximately 10 fold”.
For the compound `CC(C)c1cc(-c2n[nH]c(=O)n2-c2ccc3c(ccn3C)c2)c(O)cc1O` [STA-9090], the IC50 in experiment [3] came to 0.01 µM.
With `CC(C)NCCCn1c(Sc2ccc(Cl)cc2Cl)nc2c(N)ncnc21` [WS-12, 8-((2,4-Dichlorophenyl)thio)-9-(3-(isopropylamino)propyl)-9H-purin-6-amine], the IC50 is 0.41 µM and 0.407 µM in experiment [7]; 20.3 ± 1.2 µM in experiment [8].
`CC(C)NCCCn1c(Sc2cc(Cl)cc(Cl)c2)nc2c(N)ncnc21` [WS-13, 8-((3,5-Dichlorophenyl)thio)-9-(3-(isopropylamino)propyl)-9H-purin-6-amine]: the IC50 amounted to 41.8 ± 1.3 µM in [4] (read-out: Hsp90β, FP competition, 6 nM Cy3B-GM, 10 nM protein, 4° C. for 24 h); 0.22 ± 0.08 µM in [7]; 27.3 ± 3.5 µM in experiment [8].
Consider `CS(=O)(=O)CCNCc1ccc(-c2ccc3ncnc(Nc4ccc(OCc5cccc(F)c5)c(Cl)c4)c3c2)o1` [lapatinib], for which the “effect on HER2 architecture at the plasma membrane” value in experiment [13] is listed as “does not disrupt the HER^2 architecture at the plasma membrane; also recorded: No such effect was observed”.
